In patent US20100278897A1, “INTRAOCULAR BIOACTIVE AGENT DELIVERY SYSTEM WITH MOLECULAR PARTITIONING SYSTEM” (ALLERGAN, INC., priority 2009, published 2010):

Experiment: Elimination of Compound A from the eye
Type: in vivo
Conditions: intraocular

Q: With `Cc1ccoc1C(=O)Nc1cccc(C#Cc2cncc(C(=O)N=[S@](=O)(CCCN3CCN(CCOCCO)CC3)c3ccccc3)c2)c1` [Compound A] as the compound, how does the “half-life of elimination from the eye” value read?
A: a few hours
